Reference: US20260273028A1, “PEROXIDASE COMPOSITIONS CONTAINING IMPROVED ENHANCING AGENTS” (FLEN HEALTH PHARMA NV, priority 2022, published 2026)

How the values were obtained:
Format in all cases: cell-based
[1] = system: S. aureus (ATCC®6538™); experiment: Microbial challenge testing in alginogel with GOX+LPO; settings: for reduction in absolute S. aureus counts compared to guaiacol in the same concentration: alginogel with GOX+LPO, enhancer 0.0005%; for antimicrobial activity of enhancing candidate only against S. aureus: alginogel without enzymes, highest concentration tested; for reduction in absolute S. aureus counts compared to reference (enzymes only): alginogel, 0.0075% GOX+LPO
Protocol: To determine the ability of an antimicrobial agent to elicit an antimicrobial preserving efficacy in a gel environment, a microbiological challenge test can be performed. Here, the antimicrobial agent is a combination of the natural enzymes GOX+LPO. […] Microbial challenge testing was performed according to the method described in the European Pharmacopoeia current version chapter 5.1.3 ‘Efficacy of antimicrobial preservation’, but with adapted time points (0, 10, 20, 30, 40, 50, 60, 70 and 80 min instead of 0, 2, 7, 14 and 28 days). In brief, for every enhancing agent to be evaluated, a lab-scale alginogel (based on the Flaminal® formulation, but without the original enhancer guaiacol) including 0.0075% GOX+LPO (1:1) was prepared according to standard practices. Enhancing agents were added to the alginogel in a final concentration ranging from 0.01 to 0,00025% (v/w). As a reference, an alginogel including 0.0075% GOX+LPO (1:1) without the addition of any enhancing agent was included (designated as: enzymes only). As a control, an alginogel without both GOX+LPO (1:1) enzyme solution and enhancing agent (designated as: empty gel) as well as an alginogel only containing the enhancing agent only (designated as: enhancing candidate only) were included. After preparation, a homogenous sample of 10 g was transferred into a 50 ml conical tube for each alginogel to be evaluated and microorganism to be tested. For each test microorganism, including S. aureus (ATCC®6538™), P. aeruginosa (ATCC®9027™), C. albicans (ATCC®10231™) and A. niger (ATCC®16404 ™), a microbial suspension of about 10^8 CFU/ml was prepared in sterile diluent (buffered sodium chloride-peptone solution). Then, the 50 ml conical tubes containing the alginogel samples to be evaluated were inoculated with 100 μl of the designated inoculum. At the start (time point 0) and after 0, 10, 20, 30, 40, 50, 60, 70 and 80 min, the number of viable microorganisms per gram product (expressed as CFU/g) was determined by transferring a sample of 0.5 g of the product into a 15 ml conical tube containing 4.5 ml of sterile diluent and applying general dilution and plate count techniques. For each combination evaluated, this test was repeated at least 1-3 times. The collected data were further analyzed in MS Excel. Mean absolute counts (expressed as log CFU/g) were visualized in a graph.
The purpose of the hereby described experiment was to compare the efficacy of antimicrobial activity enhancement of the GOX+LPO (1:1) enzyme combination by ethanolamine and proline in a microbial challenge test using S. aureus. The test was set up as described in the section on ‘challenge testing’ in Example 2.4. The test was repeated at least 3 times.
The purpose of the hereby described experiment was to compare the efficacy of antimicrobial activity of the GOX+LPO (1:1) enzyme combination in the presence of potassium chloride/potassium bromide and potassium iodide. A microbial challenge test using S. aureus was performed. The test was set up as described in the section on ‘challenge testing’ in Example 2.4.

[2] = system: Pseudomonas aeruginosa ATCC®9027™; experiment: MIC determination, broth microdilution, GOX+LPO with potentiator candidate; settings: P. aeruginosa
Protocol: (§1) The minimum inhibitory concentration (MIC) is defined as the lowest concentration of an antimicrobial agent that results in a complete inhibition of microbial growth (determined via visual evaluation or absorbance measurements) after overnight incubation. This endpoint measurement is used to define the microbial susceptibility towards an antimicrobial agent. Here, the antimicrobial agent is a combination of the natural enzymes GOX+LPO.
(§2) To determine the MIC of the described combinations, a classical broth microdilution assay was used to determine the susceptibility of a series of microbes commonly detected in infected wounds, including (a) the Gram-positive bacterium Staphylococcus aureus ATCC® 6538™ (results shown below), (b) the Gram-negative bacterium Pseudomonas aeruginosa ATCC®9027™ (results shown below), (c) the yeast Candida albicans ATCC®10231™ (results shown below), and (d) the fungus Aspergillus niger ATCC®16404™ (results shown below). In brief, a […] serial dilution of the enzymatic GOX+LPO solution was prepared in a transparent, flat-bottomed 96-well test plate with final concentrations ranging from 0.005 to 0.00000977% (v/v). To each well, a fixed volume of the enzymatic substrate containing 3,3% (w/v) glucose and 0,084% (w/v) potassium iodide, as well as the microbial inoculum with an OD600 of 0.1 was added. In the event the enzyme combination was evaluated in the presence of a potentiator candidate, the latter was added together with the enzymatic substrate in a final concentration ranging from 100 to 0,00125% (v/v). For each combination evaluated, a blank (no addition of microbial inoculum) was included. Positive (inoculum only) and negative (background solution only) were included to evaluate the performance of the test and to select the enzymatic GOX+LPO concentration at which no microbial growth is detected (i.e., absorbance equal to that of the background solution only). Then, the 96-well test plate was incubated for 24 hours at 37° C. (S. aureus, P. aeruginosa and C. albicans) or 25° C. (A. niger). After incubation, the absorbance of each well was measured using a plate spectrophotometer (Spectramax ID3, Molecular Devices). For each combination evaluated, this test was repeated at least 5 times. The collected data were further analyzed in MS Excel. Mean absorbance data were visualized in a table format in which the MIC was highlighted.

[3] = system: Aspergillus niger ATCC®16404™; experiment: as above; settings: A. niger
Protocol: as §1, §2

[4] = system: Staphylococcus aureus ATCC® 6538™; experiment: as above; settings: S. aureus
Protocol: as §1, §2

| Compound | reduction in absolute S. aureus counts compared to guaiacol in the same concentration [1] | antimicrobial activity of enhancing candidate only against S. aureus [1] | reduction in absolute S. aureus counts compared to reference (enzymes only) ([1]; enhancer 0.00125-0.0005%) | reduction in absolute S. aureus counts compared to reference (enzymes only) ([1]; enhancer 0.0025%) | MIC: GOX+LPO enzyme solution needed to completely inhibit growth ([2]; enhancer 0,1%) | increase in MIC compared to reference ([2]; enhancer 0,1%) [×] | MIC: GOX+LPO enzyme solution needed to completely inhibit growth ([2]; enhancer 1%) | increase in MIC compared to reference ([2]; enhancer 1%) [×] | MIC: GOX+LPO enzyme solution needed to completely inhibit growth ([4]; enhancer 0.0025% to 0.00125%) | increase in MIC compared to reference or guaiacol solution ([4]; enhancer 0.0025% to 0.00125%) [×] | MIC: GOX+LPO enzyme solution needed to completely inhibit growth ([3]; enhancer 1%-0.01%) | increase in MIC compared to reference ([3]; enhancer 1%-0.01%) [×] | other results |
| --- | --- | --- | --- | --- | --- | --- | --- | --- | --- | --- | --- | --- | --- |
| CC[C@H](C)[C@H](N)C(=O)O [Isoleucine, isoleucine] | faster complete reduction | no antimicrobial activity | faster complete reduction | immediate entire reduction | 0.000625 % (v/v) | 2 | 0.000156 % (v/v) | 8 | 0.0000391 % (v/v) | 2 | – | – | MIC: GOX+LPO enzyme solution needed to completely inhibit growth ([3]; enhancer 1%-0.005%): 0.000156 % (v/v); increase in MIC compared to reference ([3]; enhancer 1%-0.005%): 2 ×; MIC: GOX+LPO enzyme solution needed to completely inhibit growth ([4]; enhancer 0.5% to 0.005%): 0.0000391 % (v/v); increase in MIC compared to reference or guaiacol solution ([4]; enhancer 0.5% to 0.005%): 2 × |
| NC(=O)CC[C@H](N)C(=O)O [Glutamine, glutamine] | faster complete reduction | no antimicrobial activity | faster complete reduction | immediate entire reduction | 0.000625 % (v/v) | 2 | 0.000156 % (v/v) | 8 | – | – | 0.000156 % (v/v) | 2 | MIC: GOX+LPO enzyme solution needed to completely inhibit growth ([4]; enhancer 1% to 0.01%): 0.0000391 % (v/v); increase in MIC compared to reference or guaiacol solution ([4]; enhancer 1% to 0.01%): 2 × |
| N[C@@H](CO)C(=O)O [Serine, serine] | faster complete reduction | no antimicrobial activity | faster complete reduction | immediate entire reduction | – | – | – | – | 0.0000391 % (v/v) | 2 | 0.000156 % (v/v) | 2 | MIC: GOX+LPO enzyme solution needed to completely inhibit growth ([2]; enhancer 0.0025-0.00125%): 0.000625 % (v/v); increase in MIC compared to reference or guaiacol solution ([2]; enhancer 0.0025-0.00125%): 2 ×; MIC: GOX+LPO enzyme solution needed to completely inhibit growth ([2]; enhancer 0.01-0.005%): 0.000625 % (v/v); increase in MIC compared to reference or guaiacol solution ([2]; enhancer 0.01-0.005%): 2 ×; MIC: GOX+LPO enzyme solution needed to completely inhibit growth ([4]; enhancer 0.01% to 0.005%): 0.0000391 % (v/v); increase in MIC compared to reference or guaiacol solution ([4]; enhancer 0.01% to 0.005%): 2 ×; MIC: GOX+LPO enzyme solution needed to completely inhibit growth ([4]; enhancer 10%): ≤ 0.0000977 % (v/v); increase in MIC compared to reference or guaiacol solution ([4]; enhancer 10%): ≥ 6 × |
